Read-outs that look alike come from different tables or passages of the source.
Legend:
Format in all cases: cell-based
[1] = test system: HTT mRNA; test: Splicing RT-qPCR assay (THP), Table 2A
[2] = test system: MYB mRNA; test: Gene panel canonical junction qPCR assay, decrease in CJ mRNA, Table 3
Outline: (§1)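 Eleven-point dose responses from 10 uM final, 24 h, DMSO ≤0.25%, in A673 or K562 cells. Relative quantification by 2^(−ΔΔCt) against housekeeper and vehicle was converted to percent response over fixed ΔCt windows and fitted to yield IC50.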

[3] = test system: HTT mRNA; test: as above
Outline: as §1

[4] = test system: SH-SY5Y (human neuroblastoma) cells; test: Cell viability, Cell Titer Glo 2.0 assay; conditions: read-out: Viability SHSY5Y.3 GI50
Outline: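 Following a 72 h incubation (37 °C, 5% CO2, 0.1% DMSO final), compound toxicity toward SH-SY5Y cells was quantified by CellTiter-Glo 2.0.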

[5] = test system: MYB mRNA; test: Splicing RT-qPCR assay (THP), Table 2A
[6] = Table 2A, THP, HTT alternative junction (AJ) mRNA, read-out: HTT AJ (AC50, increase in alternative junction mRNA)
[7] = Table 2A, THP, HTT canonical junction (CJ) mRNA, read-out: HTT CJ (IC50, decrease in canonical junction mRNA)
[8] = decrease in CJ mRNA levels, canonical junction qPCR, gene panel
[9] = Table 2A, THP, MYB alternative junction (AJ) mRNA, read-out: MYB AJ (AC50, increase in alternative junction mRNA)
[10] = Table 2A, THP, MYB canonical junction (CJ) mRNA, read-out: MYB CJ (IC50, decrease in canonical junction mRNA)
[11] = Table 2A (THP), AJ mRNA increase, read-out: HTT AJ (increase in alternative junction mRNA, AC50)
[12] = Table 2A (THP), CJ mRNA decrease, read-out: HTT CJ (decrease in canonical junction mRNA, IC50)
[13] = decrease in canonical junction (CJ) mRNA, gene panel qPCR, Table 3
[14] = Table 2A (THP), AJ mRNA increase, read-out: MYB AJ (increase in alternative junction mRNA, AC50)
[15] = Table 2A (THP), CJ mRNA decrease, read-out: MYB CJ (decrease in canonical junction mRNA, IC50)

Row | Structure (SMILES) | AC50 [1, 6] [nM] | IC50 [1, 7] [nM] | IC50 [2, 8] [nM] | IC50 [3, 8] [nM] | GI50 [4] [nM] | AC50 [5, 9] [nM] | IC50 [5, 10] [nM] | AC50 [1, 11] [nM] | IC50 [1, 12] [nM] | IC50 [2, 13] [nM] | IC50 [3, 13] [nM] | AC50 [5, 14] [nM] | IC50 [5, 15] [nM]
1 | Cc1cn2cc(NC(=O)c3cc(F)c(N4CCC(NC5CC5)CC4)c4cn(C)nc34)cc(F)c2n1 [Compound 713, 4-[4-(cyclopropylamino)-1-piperidyl]-5-fluoro-N-(8-fluoro-2-methyl-imidazo[1,2-a]pyridin-6-yl)-2-methyl-indazole-7-carboxamide] | > 10000 | > 10000 | 100 to 1000 | > 10000 | 100 to 1000 | 100 to 1000 | 100 to 1000 |  |  |  |  |  | 
2 | Cc1cn2cc(NC(=O)c3c(F)cc(N4CCC(NC5CC5)CC4)c4cn(C)nc34)cc(Oc3ccnnc3)c2n1 [Compound 386, 4-[4-(cyclopropylamino)-1-piperidyl]-6-fluoro-2-methyl-N-(2-methyl-8-pyridazin-4-yloxy-imidazo-[1,2-a]-pyridin-6-yl)indazole-7-carboxamide] |  |  |  |  | > 10000 |  |  | 1000 to 10000 | > 10000 | 100 to 1000 | > 10000 | 100 to 1000 | 100 to 1000
3 | COc1c(NC(=O)c2ccc(N3CCC(NC4CC4)CC3)c3cn(C)nc23)cc2cn(C)nc2c1Cl [Compound 461, N-(7-chloro-6-methoxy-2-methyl-indazol-5-yl)-4-[4-(cyclopropylamino)-1-piperidyl]-2-methyl-indazole-7-carboxamide] |  |  |  |  | 100 to 1000 |  |  | 100 to 1000 | 100 to 1000 | 100 to 1000 | 100 to 1000 | 100 to 1000 | 100 to 1000
4 | COc1nc2c(N3C[C@H](C)N[C@@H](C)C3)ccc(C(=O)Nc3cc(F)c4nn(C)cc4c3)c2o1 [Compound 691, 4-[(3S,5S)-3,5-dimethylpiperazin-1-yl]-N-(7-fluoro-2-methyl-indazol-5-yl)-2-methoxy-1,3-benzoxazole-7-carboxamide] | > 10000 | > 10000 | 100 to 1000 | > 10000 | 1000 to 10000 | 100 to 1000 | 100 to 1000 |  |  |  |  |  | 
5 | COc1cn2nc(C)cc2cc1C(=O)Nc1ccc(N2CCNCC2)c2cn(C)nc12 [Compound 488, 6-methoxy-2-methyl-N-(2-methyl-4-piperazin-1-yl-indazol-7-yl) pyrazolo[1,5-a]pyridine-5-carboxamide] |  |  |  |  | > 10000 |  |  | > 10000 | > 10000 | > 10000 | > 10000 | > 10000 | > 10000
6 | COc1cc2nc(CF)cn2cc1NC(=O)c1c(F)cc(N2CCC(NC3CC3)CC2)c2cn(C)nc12 [Compound 407, [cyclopropyl-[1-[6-fluoro-7-[[2-(fluoromethyl)-7-methoxy-imidazo[1,2-a]-pyridin-6-yl]carbamoyl]-2-methyl-indazol-4-y1]-4-piperidyl]amino] 2,2,2-trifluoroacetate] |  |  |  |  | 1000 to 10000 |  |  | > 10000 | > 10000 | < 100 | > 10000 | < 100 | < 100
7 | Cc1cn2cc(NC(=O)c3c(F)cc(N4CCC(NC5CC5)CC4)c4cn(C)nc34)nc2c(C)n1 [Compound 334, 4-(4-(cyclopropylamino)-piperidin-1-yl)-N-(6,8-dimethyl-imidazo[1,2-a]pyrazin-2-y1)-6-fluoro-2-methyl-2H-indazole-7-carboxamide bis(2,2,2-trifluoroacetate)] |  |  |  |  | 100 to 1000 |  |  | 1000 to 10000 | > 10000 | 100 to 1000 | > 10000 | < 100 | 100 to 1000
8 | CCNC1CCN(c2ccc(C(=O)Nc3cc(Oc4cccc(C)c4)c4nc(C)cn4c3)c3nn(C)cc23)CC1 [Compound 327, 4-[4-(ethylamino)-1-piperidyl]-2-methyl-N-[2-methyl-8-(3-methylphenoxy)imidazo[1,2-a]pyridin-6-yl]indazole-7-carboxamide] |  |  |  |  | 100 to 1000 |  |  | 1000 to 10000 | 1000 to 10000 | 100 to 1000 | 1000 to 10000 | < 100 | 100 to 1000
9 | CCOc1cc2nc(C)cn2cc1NC(=O)c1c(F)cc(N2CCC(NC3CC3)CC2)c2cn(C)nc12 [Compound 406, 4-[4-(cyclopropylamino)-1-piperidyl]-N-(7-ethoxy-2-methyl-imidazo[1,2-a]pyridin-6-yl)-6-fluoro-2-methyl-indazole-7-carboxamide] |  |  |  |  | 100 to 1000 |  |  | 1000 to 10000 | 1000 to 10000 | 100 to 1000 | 1000 to 10000 | 100 to 1000 | 100 to 1000
10 | COc1nc2c(C(=O)Nc3cccc4c3nnn4C)ccc(N3C[C@H](C)N[C@@H](C)C3)c2s1 [Compound 740, 7-[(3S,5S)-3,5-dimethylpiperazin-1-yl]-2-methoxy-N-(1-methylbenzotriazol-4-yl)-1,3-benzothiazole-4-carboxamide] | > 10000 | 1000 to 10000 | > 10000 | 1000 to 10000 | 1000 to 10000 | > 10000 | > 10000 |  |  |  |  |  | 
11 | COc1nc2c(C(=O)Nc3cc(F)c4nc(C)cn4c3)ccc(N3CCC(NC4CC4)CC3)c2o1 [Compound 690, 7-[4-(cyclopropylamino)-1-piperidyl]-N-(8-fluoro-2-methyl-imidazo[1,2-a]pyridin-6-yl)-2-methoxy-1,3-benzoxazole-4-carboxamide] | 100 to 1000 | < 100 | < 100 | < 100 | 100 to 1000 | < 100 | < 100 |  |  |  |  |  | 
12 | CNCC1CCCN(c2ccc(C(=O)Nc3cc4cn(C)nc4cc3OC)c3nn(C)cc23)C1 (stereo not drawn) [Compound 545] |  |  |  |  | 1000 to 10000 |  |  | > 10000 | > 10000 | 1000 to 10000 | > 10000 | 1000 to 10000 | 1000 to 10000
13 | CCNC1CCN(c2cc(F)c(C(=O)Nc3cn4cc(C)nc4c(Cl)c3OC)c3nn(C)cc23)CC1 [Compound 357, N-(8-chloro-7-methoxy-2-methylimidazo[1,2-a]pyridin-6-yl)-4-[4-(ethylamino)-1-piperidyl]-6-fluoro-2-methyl-indazole-7-carboxamide] |  |  |  |  | 100 to 1000 |  |  | 100 to 1000 | 100 to 1000 | < 100 | 100 to 1000 | < 100 | < 100
14 | CNC1CCCC(Oc2ccc(C(=O)Nc3cn4cc(C)nc(C)c4n3)c3nn(C)cc23)C1 (stereo not drawn) [Compound 593] |  |  |  |  | > 10000 |  |  | > 10000 | > 10000 | > 10000 | > 10000 | > 10000 | > 10000
15 | CNC1CCN(c2ccc(NC(=O)c3cc4cc(C)nn4cc3OC)c3nn(C)cc23)CC1 [Compound 520, 6-methoxy-2-methyl-N-[2-methyl-4-[4-(methyamino)-1-piperidyl]indazol-7-yl]-pyrazolo[1,5-a] pyridine-5-carboxamide] |  |  |  |  | > 10000 |  |  | > 10000 | > 10000 | > 10000 | > 10000 | > 10000 | > 10000
16 | Cc1cc2cc(NC(=O)c3ccc(N4CCC(NC5CC5)CC4)c4cn(C)nc34)n(C)c2c(C)n1 [Compound 469, 4-[4-(cyclopropyl-amino)-1-piperidyl]-2-methyl-N-(1,5,7-trimethyl-pyrrolo[2,3-c]-pyridin-2-yl)indazole-7-carboxamide] |  |  |  |  | 100 to 1000 |  |  | 1000 to 10000 | 1000 to 10000 | 1000 to 10000 | 1000 to 10000 | 1000 to 10000 | 1000 to 10000
17 | COc1nc2c(C(=O)Nc3cc(F)c4nn(C)cc4c3)ccc(N3C[C@H](C)N[C@@H](C)C3)c2s1 [Compound 675, 7-[(3S,5S)-3,5-dimethylpiperazin-1-yl]-N-(7-fluoro-2-methyl-indazol-5-yl)-2-methoxy-1,3-benzothiazole-4-carboxamide] | < 100 | < 100 | < 100 | < 100 | < 100 | < 100 | < 100 |  |  |  |  |  | 
18 | Cc1cn2cc(NC(=O)c3ccc(N4CCC(NC5CC5)CC4)c4cn(C)nc34)nc2c(Cn2ccc(=O)[nH]c2=O)n1 [Compound 733, 4-(4-(cyclopropylamino)piperidin-1-yl)-N-(8-((2,4-dioxo-3,4-dihydropyrimidin-1(2H)-yl)methyl)-6-methylimidazo[1,2-a]pyrazin-2-yl)-2-methyl-2H-indazole-7-carboxamide 2,2,2-trifluoroacetate] | > 10000 | > 10000 | > 10000 | > 10000 | 1000 to 10000 | > 10000 | > 10000 |  |  |  |  |  | 

From US20260285853A1, “COMPOUNDS AND METHODS FOR MODULATING SPLICING” (REMIX THERAPEUTICS INC., priority 2023, published 2026)
